Results reported in patent US20120108629A1, “New use of neferine” (Institute of Chinese Materia Medica, China Academy, priority 2009, published 2012).

Experiments:
TRPV1 mRNA = TRPV1 mRNA expression in DRG cells by real-time PCR; format: cell-based, rat; settings: for TRPV1 mRNA expression (2^−ΔΔCT): 37° C. 24 h
TRPV1 [1] = experiment: Intracellular calcium change in DRG cells, Fluo-4 fluorescence (Examples 4-5, Tables 4-5); format: cell-based, rat
Procedure: (§1) Detection of intracellular calcium concentrations of DRG cells: DRG cells cultured under normal, low and high temperature conditions was obtained. The medium was discarded and the cells were washed after certain time. 0.1%F-127, 5 μM of Fluo-4-AM, M fluorescent dye were added and loaded at 25° C. out of light for 30 min. After dye loading, the redundant dye was washed out and buffer and test compounds were added respectively. The cells were put in a closed chamber on a microscope stage. Fluorescence dyed cells were detected with appropriate conditions. The change of fluorescence intensity in each cell was determined and the data were analyzed by software. The change of the intracellular calcium concentration was indicated by fluorescence intensity. The change degree of the intracellular calcium concentration was represented by the percent ratio of the change value of fluorescence intensity before and after administration and the value of fluorescence intensity before administration (Δ[Ca2+]i), i.e. Δ[Ca2+]i=(fluorescence intensity value after administration F-fluorescence intensity value before administration F0)/fluorescence intensity value before administration F0×100%. The change of the intracellular calcium concentration indicated the function of TRP.
(§2) The medium was discarded and the fluorescent dye was added and loaded for 30 min. The change of fluorescence intensity in cell was determined in a closed chamber on a microscope stage and the change of the intracellular calcium concentration was assayed.
as §2

TRPV1 [2] = target: TRPV1 (Rattus norvegicus, UniProt O35433); experiment: Intracellular calcium change in DRG cells, Fluo-4 fluorescence (Examples 9-11, Tables 9-11); format: cell-based
Sequence of TRPV1 (Rattus norvegicus, UniProt O35433) (O35433 whole entry): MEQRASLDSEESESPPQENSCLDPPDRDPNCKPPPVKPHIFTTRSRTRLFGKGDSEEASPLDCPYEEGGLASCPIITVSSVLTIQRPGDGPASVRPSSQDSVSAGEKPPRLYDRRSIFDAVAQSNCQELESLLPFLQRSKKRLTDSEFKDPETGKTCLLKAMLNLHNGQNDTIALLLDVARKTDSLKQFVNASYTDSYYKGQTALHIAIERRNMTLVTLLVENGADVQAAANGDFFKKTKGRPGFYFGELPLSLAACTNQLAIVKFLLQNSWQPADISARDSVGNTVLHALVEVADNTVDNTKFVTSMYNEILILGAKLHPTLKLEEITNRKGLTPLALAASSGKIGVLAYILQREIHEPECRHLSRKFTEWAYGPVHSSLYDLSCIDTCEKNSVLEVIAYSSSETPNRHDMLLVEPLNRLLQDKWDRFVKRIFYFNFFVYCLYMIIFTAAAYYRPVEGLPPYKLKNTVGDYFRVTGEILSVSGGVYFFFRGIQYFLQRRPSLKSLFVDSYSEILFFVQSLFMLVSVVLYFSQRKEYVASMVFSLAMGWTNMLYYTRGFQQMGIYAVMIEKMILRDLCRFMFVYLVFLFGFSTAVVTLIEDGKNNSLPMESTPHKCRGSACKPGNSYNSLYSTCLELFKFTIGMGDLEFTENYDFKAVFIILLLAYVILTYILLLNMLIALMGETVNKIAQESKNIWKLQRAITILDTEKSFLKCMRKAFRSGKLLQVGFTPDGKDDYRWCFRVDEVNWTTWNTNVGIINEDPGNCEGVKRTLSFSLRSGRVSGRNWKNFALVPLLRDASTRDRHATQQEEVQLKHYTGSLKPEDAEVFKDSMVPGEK
Procedure: as §1, §2, §2
(this is the appropriate stimulation time for the intracellular calcium change after stimulation under 19° C., and the experiment data was not shown). The medium was discarded and the fluorescent dye was added and loaded for 30 min.

[3] = tested on: Human breast cancer cell line MDA-MB-231; experiment: Inhibition on proliferation of human cancer cells, MDA-MB-231; format: cell-based; settings: MDA-MB-231, 72 h incubation
Description: (§3) Inhibition on proliferation of human cancer cells: It is reported that the drugs that up-regulate TRPM8 or down-regulate TRPV1 can inhibit proliferation of breast cancer. To further investigate whether neferine follow the same way, human breast cancer cell line MDA-MB-231 and MDA-MB-453 as well as cancer gene-containing human breast gland epithelial cell line MCF10A-Myc and human pancreatic cancer cell line MIAPaCa-2 were employed and cultured in DMEM or DMEM/F12 medium with epithelial growth factor in vitro. After incubation with various concentrations of test agents for 72 h, the effective concentration of them for inhibiting the tumor cells was assayed according to the common method in the art.
(§4) According to the “Inhibition on proliferation of human cancer cells” described above, the effective concentrations of neferine for the inhibition of tumors were obtained (table 11).

[4] = tested on: Human breast cancer cell line MDA-MB-453; experiment: Inhibition on proliferation of human cancer cells, MDA-MB-453; format: cell-based; settings: MDA-MB-453, 72 h incubation
Description: as §3, §4

[5] = tested on: Cancer gene-containing human breast epithelial cell line MCF10A-Myc; experiment: Inhibition on proliferation, MCF10A-Myc; format: cell-based; settings: 72 h incubation
Description: as §3, §4

[6] = tested on: Human pancreas cancer cell line MIAPaCa-2; experiment: Inhibition on proliferation of human cancer cells, MIAPaCa-2; format: cell-based
Description: as §3, §4

breast cancer cells = experiment: Inhibition on proliferation of human cancer cells, breast cancer cells; format: cell-based
Description: as §3, §4

TRPM8 mRNA = TRPM8 mRNA expression in DRG cells by real-time PCR; settings: for Effect on TRPM8 mRNA expression (in words) / TRPM8 mRNA expression (2^−ΔΔCT): DRG cells
Procedure: DRG were aseptically removed and meticulously cleaned the rootlets and connective tissue. The tissue was digested with collagenase and trypsin in succession, and then centrifuged and the digestive liquid was discarded. Cells were prepared into single cell suspension in common culture medium, and then calculated and adjusted to 10^5 nerve cells per ml. It was incubated in culture plates pre-coated with laminin at 37° C. in 5% CO2 for 48 hours. Camptothecine was used to inhibit proliferation of other cells. Culture was continued to obtain DRG cells with a high purity (>98%).
Detection of TRPM8 and TRPV1 mRNA expression: The total RNA of the DRG neuronal cells was extracted in a routine way, after exposure to the tested agents of various concentrations under the normal, low and high temperature conditions respectively. The concentration of RNA was measured and its cDNA was prepared. The desired amount of resulting cDNA and TRPM8 or TRPV1 gene primers were added on the IQ5-Type real-time IQ5-Type real-time PCR meter with GAPDH as the endogenous control to perform extension. Melting curves were generated. Relative gene expression was calculated using the comparative threshold cycle (2-^ΔΔCT) method with the calculated formula as following:
ΔΔCt=(Ct,Target-Ct,GAPDH)x-(Ct,Target-Ct,GAPDH)Control
X represents any one of tested, Control represents double target gene expression after GAPDH correction.
The purified culture medium of DRG cells was added with three different concentrations of test compounds and cultured at 37° C. in 5% CO2 for 24 h. The total RNA was extracted immediately after culture. The TRPM8 agonist hexahydrothymol was positive control group and the normal culture medium was vehicle control group. Then the real-time PCR amplification was performed and TRPM8 mRNA was determined.
The purified culture medium of DRG cells was added with three different concentrations of test compounds and cultured at 37° C. in 5% CO2 for 23 h followed by 39° C. in 5% CO2 for 1 h. The total RNA was extracted immediately after culture. The TRPM8 agonist hexahydrothymol was positive control group and the normal culture medium was vehicle control group. Then the real-time PCR amplification was performed and TRPM8 mRNA was determined.
The purified culture medium of DRG cells was added with three different concentrations of test compounds and cultured at 37° C. in 5% CO2 for 22 h followed by 19° C. in 5% CO2 for 2 h. The total RNA was extracted immediately after culture. The TRPM8 agonist hexahydrothymol was positive control group and the normal culture medium was vehicle control group. Then the real-time PCR amplification was performed and TRPM8 mRNA was determined.

[7] = 37° C. 22 h then 19° C. 2 h, 2.5 μmol/L
[8] = 37° C. 22 h then 19° C. 2 h, 5 μmol/L
[9] = 37° C. 22 h then 19° C. 2 h, 10 μmol/L
[10] = 37° C. 23 h then 39° C. 1 h, 2.5 μmol/L
[11] = 37° C. 23 h then 39° C. 1 h, 5 μmol/L
[12] = 37° C. 23 h then 39° C. 1 h, 10 μmol/L

neferine was tested, and the “Effect on TRPV1 mRNA expression (in words)” value (TRPV1 mRNA; 19° C.) was “further inhibit expression levels of TRPV1 mRNA dose-dependently”, the “TRP V1 mRNA expression(2^−ΔΔCT)” value (TRPV1 mRNA; [7]) was 0.54 ± 0.17 and the “TRP V1 mRNA expression(2^−ΔΔCT)” value (TRPV1 mRNA; [8]) was 0.47 ± 0.20. For the same substance, the “TRP V1 mRNA expression(2^−ΔΔCT)” value (TRPV1 mRNA; [9]) was 0.45 ± 0.23, the “TRP V1 mRNA expression(2^−ΔΔCT)” value (TRPV1 mRNA; [10]) was 4.16 ± 0.71 and the “TRP V1 mRNA expression(2^−ΔΔCT)” value (TRPV1 mRNA; [11]) was 3.70 ± 0.69. The “TRP V1 mRNA expression(2^−ΔΔCT)” value (TRPV1 mRNA; [12]) was 3.13 ± 0.51, the “TRPV1 mRNA expression (2^−ΔΔCT)” value (TRPV1 mRNA; 2.5 μmol) was 0.96 ± 0.41 and the “TRPV1 mRNA expression (2^−ΔΔCT)” value (TRPV1 mRNA; 5 μmol) was 1.09 ± 0.30. The “TRPV1 mRNA expression (2^−ΔΔCT)” value (TRPV1 mRNA; 10 μmol) was 1.04 ± 0.43, the “Effect on TRPV1 mRNA expression (in words)” value (TRPV1 mRNA; 37° C., under the test concentrations) was “could not change expression levels of TRPV1 mRNA” and the “Effect on TRPV1 mRNA expression (in words)” value (TRPV1 mRNA; 39° C.) was “decrease the expression levels of TRPV1 mRNA dose-dependently”. For the same substance, the “Effect on intracellular calcium concentration (in words)” value (TRPV1 [1]; Example 4, DRG cells, 37° C.) was “increase the intracellular calcium concentration dose-dependently”, the “Intracellular Calcium changes [(F1 − F0)/F0/%]” value (TRPV1 [1]; Table 4, DRG cells, 37° C. 24 h, 2.5 μmol/L) was 121.41 ± 10.05% and the “Intracellular Calcium changes [(F1 − F0)/F0/%]” value (TRPV1 [1]; Table 4, DRG cells, 37° C. 24 h, 5 μmol/L) was 128.16 ± 11.48%. For the same substance, the “Intracellular Calcium changes [(F1 − F0)/F0/%]” value (TRPV1 [1]; Table 4, DRG cells, 37° C. 24 h, 10 μmol/L) was 132.07 ± 19.30 %, the “Intracellular Calcium changes [(F1 − F0)/F0/%]” value (TRPV1 [1]; Table 5, DRG cells, 37° C. 22 h then 39° C. 2 h, 2.5 μmol/L) was 107.88 ± 13.07% and the “Intracellular Calcium changes [(F1 − F0)/F0/%]” value (TRPV1 [1]; Table 5, DRG cells, 37° C. 22 h then 39° C. 2 h, 5 μmol/L) was 108.09 ± 12.85%. For the same substance, the “Intracellular Calcium changes [(F1 − F0)/F0/%]” value (TRPV1 [1]; Table 5, DRG cells, 37° C. 22 h then 39° C. 2 h, 10 μmol/L) was 112.72 ± 11.74 %, the “Effect on intracellular calcium concentration (in words)” value (TRPV1 [2]; Example 9, DRG cells, 37° C.) was “decrease the concentration of intracellular calcium dose-dependently” and the “correlation coefficient of dose dependence, intracellular calcium” value (TRPV1 [2]; Example 9, DRG cells, 37° C.) was −0.85. The “Effect on intracellular calcium concentration (in words)” value (TRPV1 [2]; Example 10, DRG cells, 39° C.) was “inhibit the change of the intracellular calcium concentration dose-dependently”, the “correlation coefficient of dose dependence, intracellular calcium” value (TRPV1 [2]; Example 10, DRG cells, 39° C.) was −0.815 and the “Effect on intracellular calcium concentration (in words)” value (TRPV1 [2]; Example 11, DRG cells, 19° C.) was “further inhibit the change of the intracellular calcium concentration dose-dependently”. The “correlation coefficient of dose dependence, intracellular calcium” value (TRPV1 [2]; Example 11, DRG cells, 19° C.) was −0.99, the “Intracellular Calcium changes [(F1 − F0)/F0/%]” value (TRPV1 [2]; Table 9, DRG cells, 37° C. 24 h, 2.5 μmol/L) was 98.15 ± 10.71% and the “Intracellular Calcium changes [(F1 − F0)/F0/%]” value (TRPV1 [2]; Table 9, DRG cells, 37° C. 24 h, 5 μmol/L) was 98.64 ± 12.77%. The “Intracellular Calcium changes [(F1 − F0)/F0/%]” value (TRPV1 [2]; Table 9, DRG cells, 37° C. 24 h, 10 μmol/L) was 96.33 ± 8.96%, the “Intracellular Calcium changes [(F1 − F0)/F0/%]” value (TRPV1 [2]; Table 10, DRG cells, 37° C. 22 h then 39° C. 2 h, 2.5 μmol/L) was 128.63 ± 14.40% and the “Intracellular Calcium changes [(F1 − F0)/F0/%]” value (TRPV1 [2]; Table 10, DRG cells, 37° C. 22 h then 39° C. 2 h, 5 μmol/L) was 120.51 ± 11.29%. For the same substance, the “Intracellular Calcium changes [(F1 − F0)/F0/%]” value (TRPV1 [2]; Table 10, DRG cells, 37° C. 22 h then 39° C. 2 h, 10 μmol/L) was 119.49 ± 11.21%, the “Intracellular Calcium changes [(F1 − F0)/F0/%]” value (TRPV1 [2]; Table 11, DRG cells, 37° C. 21 h then 19° C. 3 h, 2.5 μmol/L) was 99.71 ± 10.96% and the “Intracellular Calcium changes [(F1 − F0)/F0/%]” value (TRPV1 [2]; Table 11, DRG cells, 37° C. 21 h then 19° C. 3 h, 5 μmol/L) was 98.30 ± 11.89%. The “Intracellular Calcium changes [(F1 − F0)/F0/%]” value (TRPV1 [2]; Table 11, DRG cells, 37° C. 21 h then 19° C. 3 h, 10 μmol/L) was 93.02 ± 10.54%, the Inhibition concentration [3] was 1.30 µg/mL and the Inhibition concentration [4] was 2.05 µg/mL. For the same substance, the Inhibition concentration [5] was 5.95 µg/mL, the Inhibition concentration ([6]; MIAPaCa-2, 72 h incubation) was 3.64 µg/mL and the “inhibition concentration for pancreas” value ([6]; pancreas cancer cells) was “below 4 μg/ml”. For the same substance, the “inhibition concentration on breast cancer cells” value (breast cancer cells) was “below 2.1 μg/ml”, the “Effect on TRPM8 mRNA expression (in words)” value (TRPM8 mRNA; 19° C.) was “up-regulate the expression levels of TRPM8 mRNA dose-dependently” and the “Effect on TRPM8 mRNA expression (in words)” value (TRPM8 mRNA; 37° C.) was “up-regulate the expression levels of TRPM8 mRNA dose-dependently”. For the same substance, the “TRPM8 mRNA expression (2^−ΔΔCT)” value (TRPM8 mRNA; [7]) was 3.25 ± 0.65, the “TRPM8 mRNA expression (2^−ΔΔCT)” value (TRPM8 mRNA; [8]) was 3.37 ± 0.87 and the “TRPM8 mRNA expression (2^−ΔΔCT)” value (TRPM8 mRNA; [9]) was 3.49 ± 0.82. The “TRPM8 mRNA expression (2^−ΔΔCT)” value (TRPM8 mRNA; [10]) was 0.74 ± 0.23, the “TRPM8 mRNA expression (2^−ΔΔCT)” value (TRPM8 mRNA; [11]) was 0.78 ± 0.33 and the “TRPM8 mRNA expression (2^−ΔΔCT)” value (TRPM8 mRNA; [12]) was 0.79 ± 0.24. The “TRPM8 mRNA expression (2^−ΔΔCT)” value (TRPM8 mRNA; 37° C. 24 h, 2.5 μmol/L) was 1.10 ± 0.27, the “TRPM8 mRNA expression (2^−ΔΔCT)” value (TRPM8 mRNA; 37° C. 24 h, 5 μmol/L) was 1.14 ± 0.31 and the “TRPM8 mRNA expression (2^−ΔΔCT)” value (TRPM8 mRNA; 37° C. 24 h, 10 μmol/L) was 1.28 ± 0.27. The “Effect on TRPM8 mRNA expression (in words)” value (TRPM8 mRNA; 39° C.) was “did not up-regulate TRPM8 mRNA expression” and the “Effect compared with the agonist hexahydrothymol (in words)” value (TRPM8 mRNA; general statement on TRPM8) was “stronger effect than hexahydrothymol”.
